Results on 4 molecules are retold here after patent US20080194482A1, “Selective Apac2 Receptor Peptide Agonists” (priority 2005, published 2008).

Square brackets hold non-standard residues; d marks the D form. Peptide text beside a SMILES is read from it. * marks the point of attachment. Orn = NCCC[C@H](N)C(=O)O; Hexanoyl = CCCCCC(=O)*; Aib = CC(C)(N)C(=O)O

In general, IC50 refers to the midpoint of a concentration-inhibition curve. What is called EC50 is the concentration needed to bring the measured effect to its halfway point. High values mean a less potent agent, low ones a more potent agent.

The target in data set [1] is T1, human VPAC1 (Homo sapiens, UniProt P32241).
T1 construct: expressed in transfected cells
T1 sequence (P32241 31-457): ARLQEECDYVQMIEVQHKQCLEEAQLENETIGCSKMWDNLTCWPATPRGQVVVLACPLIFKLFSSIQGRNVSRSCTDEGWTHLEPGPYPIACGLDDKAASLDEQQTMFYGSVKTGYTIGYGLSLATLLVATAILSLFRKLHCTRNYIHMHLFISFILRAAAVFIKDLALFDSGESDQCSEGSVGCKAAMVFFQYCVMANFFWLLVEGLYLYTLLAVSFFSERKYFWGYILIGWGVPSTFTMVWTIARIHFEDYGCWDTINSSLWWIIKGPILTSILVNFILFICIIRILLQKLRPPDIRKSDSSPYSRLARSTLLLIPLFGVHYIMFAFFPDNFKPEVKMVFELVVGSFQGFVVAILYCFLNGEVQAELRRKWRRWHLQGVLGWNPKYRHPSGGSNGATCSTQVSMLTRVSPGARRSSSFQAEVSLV
The data set is described as follows: Filter binding assay, 125I-labeled VIP tracer, VPAC1 membranes. To be noted: read-out: Human VPAC1 Receptor Binding (IC50; nM).
Procedure: For this assay, the solutions and equipment include:
Presoak solution: 0.5% Polyethyleneamine in Aqua dest
Buffer for flushing filter plates: 25 mM HEPES pH 7.4
Blocking buffer: 25 mM HEPES pH 7.4; 0.2% protease free BSA
Assay buffer: 25 mM HEPES pH 7.4; 0.5% protease free BSA
Dilution and assay plate: PS-Microplate, U form
Filtration Plate: Multiscreen FB Opaque Plate; 1.0 μM Type B Glasfiber filter
In order to prepare the filter plates, the presoak solution is aspirated by vacuum filtration. The plates are flushed twice with 200 μL flush buffer. 200 μL blocking buffer is added to the filter plate. The filter plate is then incubated with 200 μL presoak solution for 1 hour at room temperature.
The assay plate is filled with 25 μL assay buffer, 25 μL membranes (2.5 μg) suspended in assay buffer, 25 μL compound (agonist) in assay buffer, and 25 μL tracer (about 40000 cpm) in assay buffer. The filled plate is incubated for 1 hour with shaking.
The transfer from assay plate to filter plate is conducted. The blocking buffer is aspirated by vacuum filtration and washed two times with flush buffer. 90 μL is transferred from the assay plate to the filter plate. The 90 μL transferred from assay plate is aspirated and washed three times with 200 μL flush buffer. The plastic support is removed. It is dried for 1 hour at 60° C. 30 μL Microscint is added. The count is performed.

Data set [2] has as its target T2, human PAC1 (Homo sapiens, UniProt P41586).
T2 construct: expressed in transfected cells
T2 sequence (P41586 21-468): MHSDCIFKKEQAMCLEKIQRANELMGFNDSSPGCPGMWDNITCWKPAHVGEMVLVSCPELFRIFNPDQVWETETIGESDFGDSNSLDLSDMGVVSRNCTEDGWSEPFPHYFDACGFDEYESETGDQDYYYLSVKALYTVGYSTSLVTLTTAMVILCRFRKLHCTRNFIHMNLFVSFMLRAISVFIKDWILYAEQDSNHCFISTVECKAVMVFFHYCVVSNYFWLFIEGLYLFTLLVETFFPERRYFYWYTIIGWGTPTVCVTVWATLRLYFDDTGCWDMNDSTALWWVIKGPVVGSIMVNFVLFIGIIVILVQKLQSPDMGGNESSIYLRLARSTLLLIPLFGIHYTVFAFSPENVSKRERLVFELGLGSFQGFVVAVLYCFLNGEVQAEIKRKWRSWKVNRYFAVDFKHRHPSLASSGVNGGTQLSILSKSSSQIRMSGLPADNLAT
The data set is described as follows: Filter binding assay, 125I-labeled PACAP-27 tracer, PAC1 membranes. To be noted: read-out: Human PAC1 Receptor Binding (IC50; nM).

Data set [3] concerns the target T3, human VPAC2 (Homo sapiens, UniProt P41587).
T3 construct: expressed in transfected cells
T3 sequence (P41587 24-438): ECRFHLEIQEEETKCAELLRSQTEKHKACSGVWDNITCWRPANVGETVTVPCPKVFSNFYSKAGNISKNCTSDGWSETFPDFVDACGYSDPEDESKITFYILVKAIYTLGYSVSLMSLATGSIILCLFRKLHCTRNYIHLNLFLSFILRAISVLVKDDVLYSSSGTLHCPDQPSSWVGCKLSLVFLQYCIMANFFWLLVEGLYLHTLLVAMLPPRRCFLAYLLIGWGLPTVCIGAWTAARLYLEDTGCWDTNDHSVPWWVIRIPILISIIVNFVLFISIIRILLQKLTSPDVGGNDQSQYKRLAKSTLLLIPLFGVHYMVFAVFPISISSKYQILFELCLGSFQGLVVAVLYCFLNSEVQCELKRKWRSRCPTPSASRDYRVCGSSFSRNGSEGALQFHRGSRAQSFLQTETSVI
As to the kind of experiment: Alpha screen cAMP assay, in vitro potency at human VPAC2 receptor. It counts as cell-based. To be noted: cAMP generation; single result from two analyses in a single run, some values average of more than one experiment.
Procedure: Alpha screen: Cells are washed in the culture flask once with PBS. Then, the cells are rinsed with enzyme free dissociation buffer. The dissociated cells are removed. The cells are then spun down and washed in stimulation buffer. For each data point, 50,000 cells suspended in stimulation buffer are used. To this buffer, Alpha screen acceptor beads are added along with the stimuli. This mixture is incubated for 60 minutes. Lysis buffer and Alpha screen donor beads are added and are incubated for 60 to 120 minutes. The Alpha screen signal (indicative of intracellular cAMP levels) is read in a suitable instrument (e.g. AlphaQuest from Perkin-Elmer). Steps including Alpha screen donor and acceptor beads are performed in reduced light. The EC50 for cAMP generation is calculated from the raw signal or is based on absolute cAMP levels as determined by a standard curve performed on each plate.
Results for each agonist are, at minimum, from two analyses performed in a single run. For some agonists, the results are the mean of more than one run. The tested peptide concentrations are: 10000, 1000, 100, 10, 3, 1, 0.1, 0.01, 0.003, 0.001, 0.0001 and 0.00001 nM.

Data set [4] in a line: Rat serum stability (activity remaining, CHO-VPAC2 DiscoveRx read-out). The class given is in vitro ADME. The protocol: The rat serum is stored at 4° C. until use and is used within two weeks. […] The aliquot is stored with aprotinin at 4° C. The aliquot is stored without aprotinin at 37° C. The aliquots are incubated overnight. […] The plate(s) are washed with cells twice in incubation buffer. The plates are allowed to hold 50 μL incubation media per well for 15 minutes. 50 μL solution per well is transferred to the cells from the plate prepared with 11 serial 5× dilutions of peptide for the 4° C. and 37° C. aliquot for each peptide studied, using the maximal concentrations that are indicated by the primary screen, in duplicate. This step dilutes the peptide concentration by a factor of two. The cells are incubated at room temperature for 30 minutes. […] The cells are incubated on the shaker (300 rpm) for 1 hour. Normal procedure with the DiscoveRx kit is followed. cAMP standards are included in column 12. EC50 values are determined from the cAMP assay data.

Turning to `CCCCCC(=O)N[C@@H](Cc1c[nH]cn1)C(=O)N[C@@H](CO)C(=O)N[C@@H](CC(=O)O)C(=O)N[C@@H](C)C(=O)N[C@H](C(=O)N[C@@H](Cc1ccccc1)C(=O)N[C@H](C(=O)N[C@@H](CC(=O)O)C(=O)N[C@@H](CC(N)=O)C(=O)N[C@@H](Cc1ccc(O)cc1)C(=O)N[C@H](C(=O)N[C@@H](CCCNC(=N)N)C(=O)N[C@@H](CC(C)C)C(=O)N[C@@H](CCCNC(=N)N)C(=O)NC(C)(C)C(=O)N[C@@H](CCC(N)=O)C(=O)N[C@H](C(=O)N[C@@H](C)C(=O)N[C@@H](C)C(=O)NC(C)(C)C(=O)N[C@@H](CCCCN)C(=O)N[C@@H](Cc1ccc(O)cc1)C(=O)N[C@@H](CC(C)C)C(=O)N[C@@H](CCC(N)=O)C(=O)N[C@@H](CO)C(=O)N[C@H](C(=O)N[C@@H](CCCCN)C(=O)NC(C)(C)C(=O)N[C@@H](CCCN)C(=O)NCC(=O)NCC(=O)N1CCC[C@H]1C(=O)N[C@@H](CO)C(=O)N[C@@H](CO)C(=O)NCC(=O)N[C@@H](C)C(=O)N1CCC[C@H]1C(=O)N1CCC[C@H]1C(=O)N1CCC[C@H]1C(=O)N[C@@H](CO)C(=O)O)[C@@H](C)CC)C(C)C)[C@@H](C)O)[C@@H](C)O)C(C)C` [Agonist P357], the IC50 is above 3000 nM in data set [1] and above 25000 nM in data set [2]. In data set [3], this molecule came in with an EC50 of 0.23 nM. The “Rat Serum Stability (estimated purity in % after overnight incub.)” value in data set [4] was 38.83%.

`CCCCCC(=O)N[C@@H](Cc1c[nH]cn1)C(=O)N[C@@H](CO)C(=O)N[C@@H](CC(=O)O)C(=O)N[C@@H](C)C(=O)N[C@H](C(=O)N[C@@H](Cc1ccccc1)C(=O)N[C@H](C(=O)N[C@@H](CC(=O)O)C(=O)N[C@@H](CC(N)=O)C(=O)N[C@@H](Cc1ccc(O)cc1)C(=O)N[C@H](C(=O)N[C@@H](CCCN)C(=O)N[C@@H](CC(C)C)C(=O)N[C@@H](CCCNC(=N)N)C(=O)NC(C)(C)C(=O)N[C@@H](CCC(N)=O)C(=O)N[C@H](C(=O)N[C@@H](C)C(=O)N[C@@H](C)C(=O)NC(C)(C)C(=O)N[C@@H](CO)C(=O)N[C@@H](Cc1ccc(O)cc1)C(=O)N[C@@H](CC(C)C)C(=O)N[C@@H](CCC(N)=O)C(=O)N[C@@H](CO)C(=O)N[C@H](C(=O)N[C@@H](CCCN)C(=O)N[C@@H](CC(N)=O)C(=O)N[C@@H](CCCN)C(=O)NCC(=O)NCC(=O)N1CCC[C@H]1C(=O)N[C@@H](CO)C(=O)N[C@@H](CO)C(=O)NCC(=O)N[C@@H](C)C(=O)N1CCC[C@H]1C(=O)N1CCC[C@H]1C(=O)N1CCC[C@H]1C(=O)N[C@@H](CO)C(=O)O)[C@@H](C)CC)C(C)C)[C@@H](C)O)[C@@H](C)O)C(C)C` [Agonist P386] (Hexanoyl-HSDAVFTDNYT[Orn]LR[Aib]QVAA[Aib]SYLQSI[Orn]N[Orn]GGPSSGAPPPS-OH; C-terminus assumed): the figures for the concentration for half-maximal inhibition (IC50) in data set [1] and in data set [2] were above 3000 nM and above 25000 nM, respectively. The same molecule returned a 50% effective concentration (EC50) in data set [3] of 0.65 nM. For the same molecule, the “Rat Serum Stability (estimated purity in % after overnight incub.)” value in data set [4] was 71.47%.

Regarding `CCCCCC(=O)N[C@@H](Cc1c[nH]cn1)C(=O)N[C@@H](CO)C(=O)N[C@@H](CC(=O)O)C(=O)N[C@@H](C)C(=O)N[C@H](C(=O)N[C@@H](Cc1ccccc1)C(=O)N[C@H](C(=O)N[C@@H](CC(=O)O)C(=O)N[C@@H](CC(N)=O)C(=O)N[C@@H](Cc1ccc(O)cc1)C(=O)N[C@H](C(=O)N[C@@H](CCCN)C(=O)N[C@@H](CO)C(=O)N[C@@H](CCCNC(=N)N)C(=O)NC(C)(C)C(=O)N[C@@H](CCC(N)=O)C(=O)N[C@H](C(=O)N[C@@H](C)C(=O)N[C@@H](C)C(=O)NC(C)(C)C(=O)N[C@@H](CCCCN)C(=O)N[C@@H](Cc1ccc(O)cc1)C(=O)N[C@@H](CC(C)C)C(=O)N[C@@H](CCC(N)=O)C(=O)N[C@@H](CO)C(=O)N[C@H](C(=O)N[C@@H](CCCN)C(=O)N[C@@H](CC(N)=O)C(=O)N[C@@H](CCCN)C(=O)NCC(=O)NCC(=O)N1CCC[C@H]1C(=O)N[C@@H](CO)C(=O)N[C@@H](CO)C(=O)NCC(=O)N[C@@H](C)C(=O)N1CCC[C@H]1C(=O)N1CCC[C@H]1C(=O)N1CCC[C@H]1C(=O)N[C@@H](CO)C(=O)O)[C@@H](C)CC)C(C)C)[C@@H](C)O)[C@@H](C)O)C(C)C` [Agonist P391] (Hexanoyl-HSDAVFTDNYT[Orn]SR[Aib]QVAA[Aib]KYLQSI[Orn]N[Orn]GGPSSGAPPPS-OH; C-terminus assumed), the half-maximal inhibitory concentration (IC50) in data set [2] is above 25000 nM. Also, the midpoint of the response in data set [3], the EC50, lay at 0.48 nM.

Regarding `CCCCCC(=O)N[C@@H](Cc1c[nH]cn1)C(=O)N[C@@H](CO)C(=O)N[C@@H](CC(=O)O)C(=O)N[C@@H](C)C(=O)N[C@H](C(=O)N[C@@H](Cc1ccccc1)C(=O)N[C@H](C(=O)N[C@@H](CC(=O)O)C(=O)N[C@@H](CC(N)=O)C(=O)N[C@@H](Cc1ccc(O)cc1)C(=O)N[C@H](C(=O)N[C@@H](CCCN)C(=O)N[C@@H](CC(C)C)C(=O)N[C@@H](CCCNC(=N)N)C(=O)NC(C)(C)C(=O)N[C@@H](CCC(N)=O)C(=O)N[C@H](C(=O)N[C@@H](C)C(=O)N[C@@H](C)C(=O)NC(C)(C)C(=O)N[C@@H](CCCN)C(=O)N[C@@H](Cc1ccc(O)cc1)C(=O)N[C@@H](CC(C)C)C(=O)N[C@@H](CCC(N)=O)C(=O)N[C@@H](CO)C(=O)N[C@H](C(=O)N[C@@H](CCCN)C(=O)N[C@@H](CCCN)C(=O)NCC(=O)NCC(=O)N1CCC[C@H]1C(=O)N[C@@H](CO)C(=O)N[C@@H](CO)C(=O)NCC(=O)N[C@@H](C)C(=O)N1CCC[C@H]1C(=O)N1CCC[C@H]1C(=O)N1CCC[C@H]1C(=O)N[C@@H](CO)C(=O)O)[C@@H](C)CC)C(C)C)[C@@H](C)O)[C@@H](C)O)C(C)C` [Agonist P397] (Hexanoyl-HSDAVFTDNYT[Orn]LR[Aib]QVAA[Aib][Orn]YLQSI[Orn][Orn]GGPSSGAPPPS-OH; C-terminus assumed), the half-maximal inhibitory concentration (IC50) in data set [1] was above 3000 nM; in data set [2], above 25000 nM. Moreover, it took 0.15 nM to reach a half-maximal effect in data set [3] (EC50). For the same molecule, the “Rat Serum Stability (estimated purity in % after overnight incub.)” value in data set [4] was 71.07%.
